Experimental data taken from ChEMBL document CHEMBL5291721, “A preclinical secondary pharmacology resource illuminates target-adverse drug reaction associations of marketed drugs” (Nat Commun, 2023).

Tests used:
[1] = target: 5-hydroxytryptamine receptor 2B (Homo sapiens, UniProt P41595); type: functional, cell-based
[2] = target: Growth hormone secretagogue receptor type 1 (Homo sapiens, UniProt Q92847)
Vasopressin V2 receptor = Vasopressin V2 receptor (Homo sapiens, UniProt P30518)
[3] = target: T1, Cholecystokinin receptor type A (Homo sapiens, UniProt P32238)
T1 sequence (P32238 whole entry): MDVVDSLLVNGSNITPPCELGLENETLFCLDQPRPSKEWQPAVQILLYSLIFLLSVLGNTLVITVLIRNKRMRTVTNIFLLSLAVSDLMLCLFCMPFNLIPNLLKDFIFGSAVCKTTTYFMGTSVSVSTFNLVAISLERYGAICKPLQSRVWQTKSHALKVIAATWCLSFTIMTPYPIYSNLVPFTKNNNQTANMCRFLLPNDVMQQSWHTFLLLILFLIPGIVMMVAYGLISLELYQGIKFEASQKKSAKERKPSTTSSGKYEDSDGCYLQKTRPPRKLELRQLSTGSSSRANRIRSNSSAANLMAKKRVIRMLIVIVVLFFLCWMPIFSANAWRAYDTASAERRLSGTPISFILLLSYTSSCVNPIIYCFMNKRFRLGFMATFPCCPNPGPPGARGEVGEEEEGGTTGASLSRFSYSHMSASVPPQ

Motilin receptor = Motilin receptor (Homo sapiens, UniProt O43193)
Progesterone receptor = target: T2, Progesterone receptor (Homo sapiens, UniProt P06401); type: functional
T2 sequence (P06401 whole entry): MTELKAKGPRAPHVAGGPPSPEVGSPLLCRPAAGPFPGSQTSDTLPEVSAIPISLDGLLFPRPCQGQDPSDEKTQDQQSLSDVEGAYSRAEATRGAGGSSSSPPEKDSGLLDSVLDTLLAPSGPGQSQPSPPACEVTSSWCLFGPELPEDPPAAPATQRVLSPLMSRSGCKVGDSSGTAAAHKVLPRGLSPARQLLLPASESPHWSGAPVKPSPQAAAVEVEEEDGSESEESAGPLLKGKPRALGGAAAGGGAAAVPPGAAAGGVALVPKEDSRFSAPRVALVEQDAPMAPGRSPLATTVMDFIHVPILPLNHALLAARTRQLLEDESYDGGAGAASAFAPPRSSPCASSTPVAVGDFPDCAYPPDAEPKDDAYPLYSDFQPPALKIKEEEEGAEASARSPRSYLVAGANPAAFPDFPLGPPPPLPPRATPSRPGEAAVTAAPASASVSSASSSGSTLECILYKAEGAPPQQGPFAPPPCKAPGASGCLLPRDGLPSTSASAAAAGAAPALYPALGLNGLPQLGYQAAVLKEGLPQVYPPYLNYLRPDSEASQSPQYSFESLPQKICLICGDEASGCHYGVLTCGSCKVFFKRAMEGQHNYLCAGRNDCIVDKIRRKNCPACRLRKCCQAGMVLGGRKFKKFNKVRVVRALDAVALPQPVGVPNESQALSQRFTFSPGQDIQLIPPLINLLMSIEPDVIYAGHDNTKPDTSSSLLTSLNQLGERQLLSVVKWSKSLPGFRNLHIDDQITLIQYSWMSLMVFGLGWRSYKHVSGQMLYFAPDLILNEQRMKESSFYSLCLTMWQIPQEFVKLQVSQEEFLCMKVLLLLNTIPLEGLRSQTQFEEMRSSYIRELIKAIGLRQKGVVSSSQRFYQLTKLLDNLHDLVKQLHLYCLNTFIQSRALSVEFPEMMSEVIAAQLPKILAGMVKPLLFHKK

[4] = target: T3, 5-hydroxytryptamine receptor 1A (Homo sapiens, UniProt P08908); type: functional, cell-based
T3 sequence (P08908 whole entry): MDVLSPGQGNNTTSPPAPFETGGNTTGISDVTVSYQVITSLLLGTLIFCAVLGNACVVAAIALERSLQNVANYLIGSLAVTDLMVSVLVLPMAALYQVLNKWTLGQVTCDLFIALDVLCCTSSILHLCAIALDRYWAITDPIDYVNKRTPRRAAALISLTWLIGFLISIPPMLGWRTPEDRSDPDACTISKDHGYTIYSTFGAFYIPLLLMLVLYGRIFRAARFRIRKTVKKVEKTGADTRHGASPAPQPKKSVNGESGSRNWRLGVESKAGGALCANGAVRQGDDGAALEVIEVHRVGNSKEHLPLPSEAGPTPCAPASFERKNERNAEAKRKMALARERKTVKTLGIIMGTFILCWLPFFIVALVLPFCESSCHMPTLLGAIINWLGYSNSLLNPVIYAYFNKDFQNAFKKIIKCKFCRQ

[5] = target: T4, 5-hydroxytryptamine receptor 2C (Homo sapiens, UniProt P28335)
T4 sequence (P28335 whole entry): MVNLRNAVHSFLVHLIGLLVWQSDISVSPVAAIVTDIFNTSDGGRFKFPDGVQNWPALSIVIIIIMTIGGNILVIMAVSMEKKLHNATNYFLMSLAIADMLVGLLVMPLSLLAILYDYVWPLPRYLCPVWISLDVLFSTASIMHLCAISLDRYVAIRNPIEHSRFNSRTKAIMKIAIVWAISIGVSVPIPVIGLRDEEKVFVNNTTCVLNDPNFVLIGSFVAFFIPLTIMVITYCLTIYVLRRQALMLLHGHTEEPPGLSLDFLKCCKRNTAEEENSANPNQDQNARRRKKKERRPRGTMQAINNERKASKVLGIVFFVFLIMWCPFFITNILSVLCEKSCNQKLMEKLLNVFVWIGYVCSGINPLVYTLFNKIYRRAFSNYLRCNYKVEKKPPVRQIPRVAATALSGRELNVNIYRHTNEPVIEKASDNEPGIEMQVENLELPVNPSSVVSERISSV

D(1A) dopamine receptor = D(1A) dopamine receptor (Homo sapiens, UniProt P21728); type: functional, cell-based
[6] = target: Glutamate receptor ionotropic, NMDA 1 (Rattus norvegicus, UniProt P35439)
[7] = target: Gamma-aminobutyric acid receptor subunit alpha-1 (Rattus norvegicus, UniProt P62813); type: functional

Measured: AC50
Note: assay procedure not described here.

Chain of Motilin receptor (O43193 whole entry): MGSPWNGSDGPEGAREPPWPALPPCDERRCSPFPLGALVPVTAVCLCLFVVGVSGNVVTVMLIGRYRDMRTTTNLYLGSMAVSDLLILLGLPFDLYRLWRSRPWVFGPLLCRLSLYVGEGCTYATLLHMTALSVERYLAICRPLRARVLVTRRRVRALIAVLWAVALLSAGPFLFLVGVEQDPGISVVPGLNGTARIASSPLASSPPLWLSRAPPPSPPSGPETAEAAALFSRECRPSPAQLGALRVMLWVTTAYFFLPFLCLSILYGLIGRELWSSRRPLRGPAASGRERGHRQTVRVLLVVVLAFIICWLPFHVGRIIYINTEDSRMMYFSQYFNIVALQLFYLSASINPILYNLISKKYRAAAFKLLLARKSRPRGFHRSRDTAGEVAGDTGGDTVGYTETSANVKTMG
Chain of Gamma-aminobutyric acid receptor subunit alpha-1 (P62813 whole entry): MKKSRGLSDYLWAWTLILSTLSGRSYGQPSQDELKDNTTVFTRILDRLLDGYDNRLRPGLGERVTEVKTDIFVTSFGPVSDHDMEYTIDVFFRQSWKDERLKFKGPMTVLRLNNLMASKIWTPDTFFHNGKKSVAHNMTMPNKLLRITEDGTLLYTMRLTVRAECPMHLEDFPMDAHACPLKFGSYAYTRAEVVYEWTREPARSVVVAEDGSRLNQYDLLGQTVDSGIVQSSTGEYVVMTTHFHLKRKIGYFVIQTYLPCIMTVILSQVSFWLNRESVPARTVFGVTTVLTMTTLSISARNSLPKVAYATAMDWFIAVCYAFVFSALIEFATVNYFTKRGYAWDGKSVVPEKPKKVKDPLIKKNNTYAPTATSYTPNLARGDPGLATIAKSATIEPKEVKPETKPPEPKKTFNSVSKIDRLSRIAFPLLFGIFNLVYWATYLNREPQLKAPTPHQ
Chain of 5-hydroxytryptamine receptor 2B (P41595 whole entry): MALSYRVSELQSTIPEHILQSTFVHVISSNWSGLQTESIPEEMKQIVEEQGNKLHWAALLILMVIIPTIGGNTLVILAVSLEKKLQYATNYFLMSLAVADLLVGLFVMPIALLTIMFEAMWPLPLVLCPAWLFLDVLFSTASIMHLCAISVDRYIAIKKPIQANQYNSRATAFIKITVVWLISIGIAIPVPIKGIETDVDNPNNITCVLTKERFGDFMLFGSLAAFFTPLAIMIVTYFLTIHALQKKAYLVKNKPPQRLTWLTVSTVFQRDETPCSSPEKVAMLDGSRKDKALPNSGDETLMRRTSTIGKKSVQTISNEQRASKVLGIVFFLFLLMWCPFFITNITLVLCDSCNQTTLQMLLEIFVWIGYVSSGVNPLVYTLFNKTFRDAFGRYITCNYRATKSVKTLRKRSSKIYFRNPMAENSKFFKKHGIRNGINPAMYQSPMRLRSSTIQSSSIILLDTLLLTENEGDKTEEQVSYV
Chain of Vasopressin V2 receptor (P30518 whole entry): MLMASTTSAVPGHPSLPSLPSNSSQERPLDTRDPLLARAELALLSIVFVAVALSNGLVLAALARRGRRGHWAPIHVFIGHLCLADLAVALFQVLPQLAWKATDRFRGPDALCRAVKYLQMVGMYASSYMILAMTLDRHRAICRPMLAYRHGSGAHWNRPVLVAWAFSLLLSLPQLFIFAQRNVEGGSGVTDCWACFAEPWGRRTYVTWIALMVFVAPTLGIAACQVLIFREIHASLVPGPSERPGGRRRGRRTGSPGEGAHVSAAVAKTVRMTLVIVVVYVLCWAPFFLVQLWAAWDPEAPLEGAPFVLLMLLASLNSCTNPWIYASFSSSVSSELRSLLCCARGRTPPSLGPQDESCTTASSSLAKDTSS
Chain of Growth hormone secretagogue receptor type 1 (Q92847 whole entry): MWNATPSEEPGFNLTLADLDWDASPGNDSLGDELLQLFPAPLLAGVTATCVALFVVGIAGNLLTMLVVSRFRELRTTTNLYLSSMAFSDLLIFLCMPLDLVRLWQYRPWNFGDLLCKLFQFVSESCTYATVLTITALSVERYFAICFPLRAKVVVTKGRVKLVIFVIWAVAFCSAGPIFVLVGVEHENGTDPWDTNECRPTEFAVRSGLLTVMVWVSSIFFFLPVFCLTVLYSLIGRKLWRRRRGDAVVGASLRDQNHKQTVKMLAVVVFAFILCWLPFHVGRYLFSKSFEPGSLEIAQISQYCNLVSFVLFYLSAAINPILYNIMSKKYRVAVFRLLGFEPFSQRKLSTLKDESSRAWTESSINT
Chain of D(1A) dopamine receptor (P21728 whole entry): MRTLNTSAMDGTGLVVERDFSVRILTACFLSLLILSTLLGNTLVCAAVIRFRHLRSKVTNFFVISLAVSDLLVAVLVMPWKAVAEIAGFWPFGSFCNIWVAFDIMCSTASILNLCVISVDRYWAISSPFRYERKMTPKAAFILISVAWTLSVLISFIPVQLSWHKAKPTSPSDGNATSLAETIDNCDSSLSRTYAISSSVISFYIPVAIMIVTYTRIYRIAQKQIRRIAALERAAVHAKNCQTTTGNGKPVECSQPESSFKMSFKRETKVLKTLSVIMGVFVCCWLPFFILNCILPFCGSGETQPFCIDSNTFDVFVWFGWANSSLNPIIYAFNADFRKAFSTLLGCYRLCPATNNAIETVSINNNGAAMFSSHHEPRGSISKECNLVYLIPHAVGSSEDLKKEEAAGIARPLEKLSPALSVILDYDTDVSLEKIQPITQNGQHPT

C[C@@H]1O[C@@H](O[C@@H]2C=C3CC[C@@H]4[C@H](CC[C@]5(C)[C@@H](c6ccc(=O)oc6)CC[C@]45O)[C@@]3(C)CC2)[C@H](O)[C@H](O)[C@H]1O [PROSCILLARIDIN]
> 30 µM: [1] | [2] | Vasopressin V2 receptor | [3] | Motilin receptor | Progesterone receptor | [4] | [5] | D(1A) dopamine receptor | [6] | [7]
